This is an account of results in US4605739A, “Benzoyl indolecarboxylates” (Kowa Co., Ltd., priority 1983, dated 1986).

pIC50: −log10 of the molar value.

The target in the assay is chymotrypsin (Bos taurus, UniProt P00766). Kind of assay: chymotrypsin inhibitory effect (procedure of Muramatsu et al; acetyl-L-tyrosine ethyl ester substrate, Hestrin method). The settings on record: 10 min preincubation, pH 8.0 Tris-HCl, 37° C., 30 min, absorbance 530 nm, read-out: Inhibitory Activity, 50% Inhibitory Concentration. Type of assay: biochemical. The protocol:
Some selected compounds of this invention were tested with respect to their chymotrypsin inhibitory effects.
The tests were conducted in accordance with the procedure of Muramatsu et al [The Journal of Biochemistry, 62, 408 (1967)]. A mixture was prepared which was made up of 0.1 ml of a dimethylsulfoxide solution of each test compound, 0.1 ml of water and 0.1 ml of a buffer solution containing 10 μg/ml of chymotrypsin (0.1M Tris-HCl buffer, pH 8.0). The mixture was incubated for 10 minutes, followed by addition of 0.2 ml of a buffer solution containing 25 mM of an ethyl ester of acetyl-L-tyrosine. The resulting mixture was reacted at 37° C. for 30 minutes. The remaining substrate was caused to develop a color by the Hestrin method, whereupon its absorbance was measured at 530 nm. For comparative purposes, use was made of tosylphenylalanine chloromethyl ketone (TPCK) which is known as a good inhibitor for chymotrypsin.
Turning to `CCCCc1ccc2[nH]c(C)c(CC(=O)Oc3ccc(C(=O)N4CCN(C(C)C)CC4)cc3)c2c1` [Example 5], the pIC50 was 6.22. As for `COc1ccc2[nH]c(C)c(CC(=O)Oc3ccc(C(=O)N4CCN(C(C)C)CC4)cc3)c2c1` [Example 3], the pIC50 was 6.40. As for `Cc1ccc2[nH]c(C)c(CC(=O)Oc3ccc(C(=O)N4CCN(C(C)C)CC4)cc3)c2c1` [Example 4], the pIC50 is 6.30. Then `CC(C)N1CCN(C(=O)c2ccc(OC(=O)Cc3c[nH]c4ccccc34)cc2)CC1` [Example 14], with 5.22. The figure for `Cc1[nH]c2ccccc2c1CC(=O)Oc1ccc(C(=O)N2CCN(C(C)C)CC2)cc1` [Example 10] is 6.15; for `COc1ccc2[nH]cc(CC(=O)Oc3ccc(C(=O)N4CCN(C(C)C)CC4)cc3)c2c1` [Example 7] it is 7.10; for `Cc1ccc(S(=O)(=O)NC(Cc2ccccc2)C(=O)CCl)cc1` (centres unmarked) [TPCK, tosylphenylalanine chloromethyl ketone, reference compound] it is 3.30. In the case of `COc1ccc2c(c1)c(CC(=O)Oc1ccc(C(=O)N3CCN(C(C)C)CC3)cc1)c(C)n2C` [Example 2], the pIC50 was 6.52.
